Read-outs that look alike come from different tables or passages of the source.
Experiments:
[1] = cited from earlier work
[2] = cited from earlier work; remark: listed apart in the source
[3] = test system: HCT116 human colon cancer cell line; experiment: CellTiter 96 Aqueous One relative growth assay; conditions: for cell viability (FIG. 86): ARQ-197 up to 3 μM; for cell viability (FIG. 86) / cell viability (FIG. 73): Atorvastatin up to 40 μM; for cell viability (FIG. 73): Sorafenib up to 5 μM; for cell viability (FIG. 80): BMS-303141 up to 20 μM, Sorafenib 3 μM and 5 μM
[4] = test system: A549 human lung cancer cell line; experiment: CellTiter 96 Aqueous One relative growth assay; assay type: cell-based; conditions: for cell viability (FIG. 84) / cell viability (FIG. 90): ARQ-197 up to 3 μM; for cell viability (FIG. 84) / cell viability (FIG. 71): Atorvastatin up to 40 μM; for cell viability (FIG. 71): Sorafenib up to 5 μM; for cell viability (FIG. 90) / cell viability (FIG. 78): BMS-303141 up to 20 μM; for relative growth percentage: BMS-303141 20 μM, alone or both; for cell viability (FIG. 78): Sorafenib 3 μM and 5 μM
[5] = test system: H1650 human lung cancer cell line; experiment: CellTiter 96 Aqueous One relative growth assay; assay type: cell-based; conditions: for cell viability (FIG. 85) / cell viability (FIG. 91): ARQ-197 up to 3 μM; for cell viability (FIG. 85) / cell viability (FIG. 72): Atorvastatin up to 40 μM; for cell viability (FIG. 72): Sorafenib up to 5 μM; for cell viability (FIG. 91) / cell viability (FIG. 79): BMS-303141 up to 20 μM; for relative growth percentage: BMS-303141 20 μM, alone or both; for cell viability (FIG. 79): Sorafenib 3 μM and 5 μM
[6] = test system: SW48 human colon cancer cell line; experiment: CellTiter 96 Aqueous One relative growth assay; assay type: cell-based; conditions: for cell viability (FIG. 87): ARQ-197 up to 3 μM, Atorvastatin up to 40 μM; for cell viability (FIG. 75): Sorafenib up to 5 μM, Atorvastatin up to 10 μM; for cell viability (FIG. 81): BMS-303141 up to 20 μM, Sorafenib 3 μM and 5 μM
Text: The SW48 human colon cancer cell line was procured from ATCC (American Type Culture Collection, Manassas, Va.).

[7] = in vivo, cited from earlier work
[8] = multiple species; cited from earlier work
CaCo-2 = conditions: cited from earlier work
[9] = cited from earlier work; remark: listed apart in the source
[10] = in vivo; cited from earlier work
[11] = test system: CaCo-2 human colon cancer cell line; experiment: CellTiter 96 Aqueous One relative growth assay; assay type: cell-based; conditions: Sorafenib up to 5 μM, Atorvastatin up to 40 μM
HCT116 xenograft = experiment: mouse xenograft model of HCT116
CAPAN1 xenograft = experiment: mouse xenograft model of CAPAN1
Hep G2 cells = conditions: dose-related; cited from earlier work
[12] = rats; cited from earlier work
ATP citrate lyase = target: T1, ATP citrate lyase (Homo sapiens, UniProt P53396); conditions: cited from earlier work
T1 sequence (P53396 1-1101): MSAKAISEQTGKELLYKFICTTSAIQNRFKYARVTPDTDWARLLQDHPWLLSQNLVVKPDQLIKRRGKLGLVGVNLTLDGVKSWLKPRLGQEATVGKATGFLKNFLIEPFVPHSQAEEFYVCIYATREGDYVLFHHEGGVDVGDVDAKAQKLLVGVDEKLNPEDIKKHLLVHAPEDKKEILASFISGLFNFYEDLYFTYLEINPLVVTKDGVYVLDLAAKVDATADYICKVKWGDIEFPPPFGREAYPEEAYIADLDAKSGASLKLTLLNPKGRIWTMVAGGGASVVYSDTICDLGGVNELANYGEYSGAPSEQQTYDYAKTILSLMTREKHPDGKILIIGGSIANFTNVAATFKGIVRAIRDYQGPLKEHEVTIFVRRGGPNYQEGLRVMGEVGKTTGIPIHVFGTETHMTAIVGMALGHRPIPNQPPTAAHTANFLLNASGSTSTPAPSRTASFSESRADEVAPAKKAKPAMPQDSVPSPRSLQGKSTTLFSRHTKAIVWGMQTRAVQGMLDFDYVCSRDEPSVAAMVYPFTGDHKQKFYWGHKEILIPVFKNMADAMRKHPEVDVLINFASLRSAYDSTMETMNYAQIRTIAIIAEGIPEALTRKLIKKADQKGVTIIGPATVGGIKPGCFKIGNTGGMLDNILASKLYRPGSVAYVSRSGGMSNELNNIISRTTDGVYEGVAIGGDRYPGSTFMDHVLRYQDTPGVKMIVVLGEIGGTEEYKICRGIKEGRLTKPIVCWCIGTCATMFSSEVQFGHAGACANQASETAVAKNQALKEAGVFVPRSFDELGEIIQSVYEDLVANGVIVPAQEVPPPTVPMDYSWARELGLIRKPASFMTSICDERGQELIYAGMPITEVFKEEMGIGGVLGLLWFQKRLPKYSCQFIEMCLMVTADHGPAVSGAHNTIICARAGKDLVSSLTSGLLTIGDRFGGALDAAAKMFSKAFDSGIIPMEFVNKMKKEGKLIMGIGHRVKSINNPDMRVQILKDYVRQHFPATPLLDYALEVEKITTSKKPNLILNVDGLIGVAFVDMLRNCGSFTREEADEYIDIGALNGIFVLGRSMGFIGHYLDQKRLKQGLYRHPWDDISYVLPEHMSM

[13] = XALKORI 250 mg twice daily, cited from earlier work
[14] = cited from earlier work; remark: listed apart in the source
[15] = oral 100 mg solution formulation
[16] = single 250 mg radiolabeled dose, healthy subjects
[17] = single 250 mg radiolabeled dose

[O-][n+]1ccccc1 [pyridine N-oxide]
share of the circulating analytes in plasma at steady-state [1]: 9-16%

Cn1cncc1[C@@](N)(c1ccc(Cl)cc1)c1ccc2c(c1)c(-c1cccc(Cl)c1)cc(=O)n2C [Tipifamib, 6-[(R)-amino-(4-chlorophenyl)-(3-methylimidazol-4-yl)methyl]-4-(3-chlorophenyl)-1-methylquinolin-2-one]
absolute oral bioavailability ([2]; healthy volunteers, fed conditions): 34%
Half-life ([2]; in vivo): 2 to 5 h
urinary excretion of unchanged drug or its metabolites, of total dose ([2]; in vivo): 13.7%
time to maximum plasma concentrations ([2]; oral administration): two to three
decrease in clearance ([2]; two-fold increase in bilirubin concentration): 6.9%
decrease in relative growth ([3]; Tipifamib 3 μM, Crizotinib 8 μM, alone or combined, about 66 hours): ~22%

CC(C)c1c(C(=O)Nc2ccccc2)c(-c2ccccc2)c(-c2ccc(F)cc2)n1CC[C@@H](O)C[C@@H](O)CC(=O)O [Atorvastatin, (3R,5R)-7-[2-(4-fluorophenyl)-3-phenyl-4-(phenylcarbamoyl)-5-propan-2-ylpyrrol-1-yl]-3,5-dihydroxyheptanoic acid]
cell viability (FIG. 84) [4]: a decrease
cell viability (FIG. 71) [4]: negligible decrease
cell viability (FIG. 85) [5]: negligible effect
cell viability (FIG. 72) [5]: negligible decrease
cell viability (FIG. 87) [6]: a decrease
cell viability (FIG. 75) [6]: negligible effect
orally administered dose recovered in urine ([7]; po): Less than 2%
circulating inhibitory activity for HMG-CoA reductase attributed to active metabolites [7]: Approximately 70%
systemic availability of the HMG-CoA reductase inhibitory activity [7]: approximately 30%
cell viability (FIG. 86) [3]: small decrease
cell viability (FIG. 73) [3]: insignificant decrease

O=C1NC(=O)[C@@H](c2cn3c4c(cccc24)CCC3)[C@@H]1c1c[nH]c2ccccc12 [ARQ-197, (3R,4R)-3-(5,6-dihydro-4H-pyrrolo[3,2,1-ij]quinolin-1-yl)-4-(1H-indol-3-yl)pyrrolidine-2,5-dione]
cell viability (FIG. 84) [4]: a decrease
cell viability (FIG. 90) [4]: minor decrease
cell viability (FIG. 85) [5]: negligible effect
cell viability (FIG. 91) [5]: minor decrease
cell viability (FIG. 87) [6]: most pronounced
oral bioavailability [8]: greater than 20%
permeability (CaCo-2 flux data) (CaCo-2): good permeability
mean terminal half-life (t1/2), tivantinib in plasma [9]: 11.7 h
median time to maximal concentration (tmax), tivantinib in plasma [9]: 4 h
cell viability (FIG. 86) [3]: small decrease

COc1ccc(-c2ccccc2)cc1NS(=O)(=O)c1cc(Cl)cc(Cl)c1O [BMS-303141, 3,5-Dichloro-2-hydroxy-N-(4-methoxy-[1,1′-biphenyl]-3-yl)-benzenesulfonamide]
relative growth percentage ([4]; ARQ-197 3 μM, about 66 hours): about 105%
cell viability (FIG. 90) [4]: minor decrease
cell viability (FIG. 78) [4]: negligible decrease
relative growth percentage ([4]; Sorafenib 5 μM, about 68 hours): about 105%
relative growth percentage ([5]; ARQ-197 3 μM, about 66 hours): about 76%
cell viability (FIG. 91) [5]: minor decrease
cell viability (FIG. 79) [5]: minor decrease
relative growth percentage ([5]; Sorafenib 5 μM, about 68 hours): about 76%
cell viability (FIG. 81) [6]: minimal decrease
relative growth percentage ([6]; Sorafenib 5 μM, BMS-303141 20 μM, alone or both, about 68 hours): about 78%
cell viability (FIG. 80) [3]: a decrease
relative growth percentage ([3]; Sorafenib 5 μM, BMS-303141 20 μM, alone or both, about 66 hours): about 54%

CCC(C)(C)C(=O)O[C@H]1C[C@@H](C)C=C2C=C[C@H](C)[C@H](CC[C@@H]3C[C@@H](O)CC(=O)O3)[C@H]21 [Simvastatin, [(1S,3R,7S,8S,8aR)-8-[2-[(2R,4R)-4-hydroxy-6-oxooxan-2-yl]ethyl]-3,7-dimethyl-1,2,3,7,8,8a-hexahydronaphthalen-1-yl]2,2-dimethylbutanoate]
Half-life [10]: 3 h

CNC(=O)c1cc(Oc2ccc(NC(=O)Nc3ccc(Cl)c(C(F)(F)F)c3)cc2)ccn1 [Sorafenib, 4-[4-[[4-chloro-3-(trifluoromethyl)phenyl]carbamoylamino]phenoxy]-N-methylpyridine-2-carboxamide]
cell viability (FIG. 78) [4]: negligible decrease
cell viability (FIG. 71) [4]: negligible decrease
cell viability (FIG. 79) [5]: minor decrease
cell viability (FIG. 72) [5]: negligible decrease
cell viability (FIG. 74) [11]: negligible effect
cell viability (FIG. 81) [6]: minimal decrease
cell viability (FIG. 75) [6]: negligible effect
bioavailability reduced by ([1]; high-fat meal compared to fasted state): about 29%
Half-life ([1]; in vivo): 25 to 48 h
dose excreted in feces [1, 15]: 77%
dose excreted in urine as glucuronidated metabolites [1, 15]: 19%
dose recovered ([1]; oral 100 mg solution formulation, within 14 days): 96%
share of the circulating analytes in plasma at steady-state [1]: 70-85%
body weight (HCT116 xenograft): not significantly affected
survival (Kaplan-Meier survival curve) (HCT116 xenograft): prolonged survival rates
inhibition of tumor volume / tumor growth (HCT116 xenograft; at 19 days): 16%
body weight (CAPAN1 xenograft): not significantly affected
survival (Kaplan-Meier survival curve) (CAPAN1 xenograft): slightly prolonged survival rates
cell viability (FIG. 80) [3]: a decrease
cell viability (FIG. 73) [3]: insignificant decrease

O=C(O)C[C@](O)(C[C@@H](O)CCCCCCc1ccc(Cl)cc1Cl)C(=O)O [SB-204990, (2R)-2-[(2S)-8-(2,4-dichlorophenyl)-2-hydroxyoctyl]-2-hydroxybutanedioic Acid]
inhibition of cholesterol synthesis (Hep G2 cells): up to 91%
inhibition of fatty acid synthesis (Hep G2 cells): ≤ 82%
inhibition of cholesterol synthesis [12]: 76%
inhibition of fatty acid synthesis [12]: 39%
direct inhibition of ATP citrate-lyase (ATP citrate lyase): does not inhibit

O=C(O)C[C@@](O)(C[C@@H](O)CCCCCCc1ccc(Cl)cc1Cl)C(=O)O [SB-201076, (2S)-2-[(2S)-8-(2,4-dichlorophenyl)-2-hydroxyoctyl]-2-hydroxybutanedioic Acid]
Ki (ATP citrate lyase; competitive inhibitor, humans): 1000 nM

C[C@@H](Oc1cc(-c2cnn(C3CCNCC3)c2)cnc1N)c1c(Cl)ccc(F)c1Cl [Crizotinib, 3-[(1R)-1-(2,6-dichloro-3-fluorophenyl)ethoxy]-5-(1-piperidin-4-ylpyrazol-4-yl)pyridin-2-amine]
patients with QTcF greater than or equal to 500 msec ([13]; 16 of 1167 patients): 1.4%
patients with increase from baseline QTcF greater than or equal to 60 msec ([13]; 51 of 1136 patients): 4.4%
time to steady state ([14]; 250 mg twice daily): ≤ 15 days
reduction of AUCinf by a high-fat meal ([14]; high-fat meal): approximately 14%
reduction of Cmax by a high-fat meal ([14]; high-fat meal): approximately 14%
mean absolute bioavailability ([14]; single 250 mg oral dose): 43%
mean apparent clearance (CL/F) ([14]; single 250 mg oral dose): 100 L/h
administered dose recovered in feces [14, 16]: 63%
administered dose recovered in urine [14, 16]: 22%
unchanged crizotinib in feces, of administered dose [14, 17]: approximately 53%
unchanged crizotinib in urine, of administered dose [14, 17]: ~2.3%
mean apparent clearance (CL/F) ([14]; steady state after 250 mg twice daily): 60 L/h

— patent US20160058751A1, “COMPOSITION AND METHOD FOR TREATING CANCER” (CELLWORKS GROUP, INC., priority 2013, published 2016)
